This note sets out measurements from patent US20140296212A1, “SUBSTITUTED PHENOXYPROPYLCYCLOAMINE DERIVATIVES AS HISTAMINE-3 (H3) RECEPTOR LIGANDS” (CEPHALON, INC., priority 2009, published 2014).

Where only a bound is given, the exact number is not on record here.

One data set addresses T1, human H3 receptor (Homo sapiens, UniProt Q9Y5N1).
T1 construct: expressed in transfected cells
Nature of the data set: Human H3 radioligand binding ([3H]-N-alpha-methylhistamine, SPA). To be noted: membranes of CHO cells expressing human H3. In short, it runs like this:
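Membranes from H3-expressing cells (10 μg protein/well) in 50 mM Tris HCl pH 7.4, 5 mM MgCl2, 0.1% BSA with ~1 nM [3H]-N-alpha-methylhistamine and compound (0.01 nM–30 μM), SPA beads, 4 h, room temperature, dark. Non-specific binding defined with 10 μM clobenpropit; bound radioligand read by scintillation counting.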

For data set [1], the target named is T2, rat histamine H3 receptor (Rattus norvegicus, UniProt Q9QYN8).
T2 construct: encoding the entire 445-amino-acid rat histamine H3 receptor; expressed in transfected cells
T2 sequence (Q9QYN8 whole entry): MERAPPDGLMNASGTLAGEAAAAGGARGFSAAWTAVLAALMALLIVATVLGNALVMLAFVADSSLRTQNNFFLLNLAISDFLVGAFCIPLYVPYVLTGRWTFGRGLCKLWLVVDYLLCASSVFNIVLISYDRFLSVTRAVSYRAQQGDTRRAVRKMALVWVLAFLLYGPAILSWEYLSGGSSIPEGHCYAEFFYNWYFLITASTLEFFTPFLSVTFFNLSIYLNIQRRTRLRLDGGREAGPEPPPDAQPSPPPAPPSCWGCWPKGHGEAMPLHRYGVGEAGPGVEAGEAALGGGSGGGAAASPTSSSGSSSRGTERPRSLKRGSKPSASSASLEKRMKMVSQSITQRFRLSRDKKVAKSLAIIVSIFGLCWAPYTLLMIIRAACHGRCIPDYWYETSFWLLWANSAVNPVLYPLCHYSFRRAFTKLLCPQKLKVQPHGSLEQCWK
As to the kind of experiment: Rat H3 radioligand binding ([3H]-N-alpha-methylhistamine, SPA). To be noted: membranes of CHO-A3 cells expressing rat H3; [3H]-N-alpha-methylhistamine; read-out: Rat H3 Ki. In short, it runs like this: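 Membranes from CHO-A3 cells stably expressing full-length rat H3 receptor (445 aa) incubated with ~1 nM [3H]-N-alpha-methylhistamine and compound (0.01 nM–30 μM) in 50 mM Tris HCl pH 7.4, 5 mM MgCl2, 0.1% BSA, 4 h, room temperature; SPA bead read-out. Non-specific binding defined with 10 μM clobenpropit.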

T1 sequence (Q9Y5N1 whole entry): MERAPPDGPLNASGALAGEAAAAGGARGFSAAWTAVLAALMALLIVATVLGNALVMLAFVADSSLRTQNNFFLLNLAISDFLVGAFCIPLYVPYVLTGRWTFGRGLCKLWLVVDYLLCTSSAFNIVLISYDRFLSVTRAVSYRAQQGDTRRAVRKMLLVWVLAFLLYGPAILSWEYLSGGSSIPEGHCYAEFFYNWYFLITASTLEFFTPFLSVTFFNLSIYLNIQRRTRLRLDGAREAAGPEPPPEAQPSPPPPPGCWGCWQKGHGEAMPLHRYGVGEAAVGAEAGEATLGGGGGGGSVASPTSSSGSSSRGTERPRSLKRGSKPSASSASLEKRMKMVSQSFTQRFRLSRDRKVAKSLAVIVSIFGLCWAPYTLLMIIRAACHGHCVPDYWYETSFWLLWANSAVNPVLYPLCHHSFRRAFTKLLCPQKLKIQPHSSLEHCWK

For the molecule `COC(=O)N1CCN(CC(=O)c2ccc(OCCCN3CCC[C@H]3C)cc2)CC1` [Example 82, 4-(2-{4-[3-((R)-2-Methyl-pyrrolidin-1-yl)-propoxy]-phenyl}-2-oxo-ethyl)-piperazine-1-carboxylic acid methyl ester], the melting point (as a rule, the temperature of the solid-liquid transition) was 208 to 210 °C. For the same molecule, the Ki (in general, a measure of affinity in units of concentration, obtained from inhibition or displacement) on human H3 receptor lay in the range of 0.1 to 100 nM. Further, the Ki in data set [1] fell in the range of 0.1 to 100 nM.

Molecule `C[C@@H]1CCCN1CCCOc1ccc(C(=O)CN2CCCc3ccccc32)cc1` [Example 108, 2-(3,4-Dihydro-2H-quinolin-1-yl)-1-{4-[3-((R)-2-methyl-pyrrolidin-1-yl)-propoxy]-phenyl}-ethanone] displayed a melting point of 166 to 168 °C. In addition, the Ki on human H3 receptor lay in the range of 0.1 to 100 nM. The Ki in data set [1] was in the range of 0.1 to 100 nM.

In the case of `CC1CCCC(C)N1CC(=O)c1ccc(OCCCN2CCC[C@H]2C)cc1` (stereo partly drawn) [Example 61, 2-(2,6-Dimethyl-piperidin-1-yl)-1-{4-[3-((R)-2-methyl-pyrrolidin-1-yl)-propoxy]-phenyl}-ethanone], the melting point is 127 to 135 °C. Moreover, the Ki at human H3 receptor fell in the range of 0.1 to 100 nM. The Ki in data set [1] is 0.1 to 100 nM.

`C[C@@H]1CCCN1CCCOc1ccc(C(=O)CN2CCC(F)(F)C2)cc1F` [Example 139, 2-(3,3-Difluoro-pyrrolidin-1-yl)-1-{3-fluoro-4-[3-((R)-2-methyl-pyrrolidin-1-yl)-propoxy]-phenyl}-ethanone] returned a melting point of 206 °C. Besides, the Ki at human H3 receptor was 0.1 to 100 nM. Moreover, the Ki in data set [1] lay within 0.1 to 100 nM.

Molecule `CC(=O)N1CCN(CC(=O)c2cc(Cl)c(OCCCN3CCC[C@H]3C)c(Cl)c2)CC1` [Example 110, 2-(4-Acetyl-piperazin-1-yl)-1-{3,5-dichloro-4-[3-((R)-2-methyl-pyrrolidin-1-yl)-propoxy]-phenyl}-ethanone] returned a melting point of 115 °C. Besides, on human H3 receptor, the Ki lay within 101 to 500 nM. Besides, the Ki in data set [1] fell in the range of 101 to 500 nM.

With `O=C1CN(CCCOc2ccc(C(=O)CN3CCOCC3)cc2)CCN1` [Example 57, 4-{3-[4-(2-Morpholin-4-yl-acetyl)-phenoxy]-propyl}-piperazin-2-one], the melting point came out at 230 °C. Besides, the Ki on human H3 receptor was > 1000 nM. Moreover, the Ki in data set [1] is > 1000 nM.

For `C[C@@H]1CCCN1CCCOc1c(Cl)cc(C(=O)CN2CCN(C(=O)C3CCCCC3)CC2)cc1Cl` [Example 99, 2-(4-Cyclohexanecarbonyl-piperazin-1-yl)-1-{3,5-dichloro-4-[3-((R)-2-methyl-pyrrolidin-1-yl)-propoxy]-phenyl}-ethanone], the melting point worked out at 168 °C. The molecule further registered a Ki on human H3 receptor of 0.1 to 100 nM. Besides, the Ki in data set [1] is 101 to 500 nM.

`CCC(=O)N1CCN(CC(=O)c2ccc(OCCCN3CCC[C@H]3C)cc2)CC1` [Example 144, 1-[4-(2-{4-[3-((R)-2-Methyl-pyrrolidin-1-yl)-propoxy]-phenyl}-2-oxo-ethyl)-piperazin-1-yl]-propan-1-one] showed a melting point of 65 to 70 °C. Moreover, the Ki at human H3 receptor is 0.1 to 100 nM. The Ki in data set [1] was in the range of 0.1 to 100 nM.

In turn, `C[C@@H]1CCCN1CCCOc1ccc(C(=O)CN2CCN(C(=O)c3cccc(Cl)c3Cl)CC2)cc1` [Example 157, 2-[4-(2,3-Dichloro-benzoyl)-piperazin-1-yl]-1-{4-[3-((R)-2-methyl-pyrrolidin-1-yl)-propoxy]-phenyl}-ethanone] yielded a melting point of 137 to 150 °C. Further, the Ki at human H3 receptor lay within 0.1 to 100 nM. Also, the Ki in data set [1] was in the range of 0.1 to 100 nM.

As to `CC(=O)N1CCN(CC(=O)c2ccc(OCCCN3CCC[C@H]3C)c(C)c2)CC1` [Example 156, 2-(4-Acetyl-piperazin-1-yl)-1-{3-methyl-4-[3-((R)-2-methyl-pyrrolidin-1-yl)-propoxy]-phenyl}-ethanone], the melting point is 120 to 126 °C. On human H3 receptor, this molecule had a Ki of 0.1 to 100 nM. For the same molecule, the Ki in data set [1] fell in the range of 0.1 to 100 nM.
